How the values were obtained:
[1] = target: T1, D(2) dopamine receptor (Homo sapiens, UniProt P14416)
[2] = target: D(3) dopamine receptor (Homo sapiens, UniProt P35462)
Description: Displacement of [3H]spiroperidol from human cloned dopamine D3 receptor

[3] = target: T1, D(2) dopamine receptor; assay: Displacement of [3H]spiroperidol from human cloned dopamine D2L receptor at 10 uM

D(3) dopamine receptor, sequence (P35462 whole entry): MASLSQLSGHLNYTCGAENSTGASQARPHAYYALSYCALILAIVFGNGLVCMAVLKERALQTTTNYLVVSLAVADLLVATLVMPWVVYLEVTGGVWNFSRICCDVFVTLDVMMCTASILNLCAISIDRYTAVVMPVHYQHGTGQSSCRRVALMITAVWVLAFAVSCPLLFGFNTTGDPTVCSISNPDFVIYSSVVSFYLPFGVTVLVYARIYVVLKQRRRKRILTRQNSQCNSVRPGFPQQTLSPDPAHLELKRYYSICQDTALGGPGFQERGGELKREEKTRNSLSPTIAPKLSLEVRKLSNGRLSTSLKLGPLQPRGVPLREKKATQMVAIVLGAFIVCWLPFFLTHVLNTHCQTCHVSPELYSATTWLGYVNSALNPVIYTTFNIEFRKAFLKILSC
T1 sequence (P14416 whole entry): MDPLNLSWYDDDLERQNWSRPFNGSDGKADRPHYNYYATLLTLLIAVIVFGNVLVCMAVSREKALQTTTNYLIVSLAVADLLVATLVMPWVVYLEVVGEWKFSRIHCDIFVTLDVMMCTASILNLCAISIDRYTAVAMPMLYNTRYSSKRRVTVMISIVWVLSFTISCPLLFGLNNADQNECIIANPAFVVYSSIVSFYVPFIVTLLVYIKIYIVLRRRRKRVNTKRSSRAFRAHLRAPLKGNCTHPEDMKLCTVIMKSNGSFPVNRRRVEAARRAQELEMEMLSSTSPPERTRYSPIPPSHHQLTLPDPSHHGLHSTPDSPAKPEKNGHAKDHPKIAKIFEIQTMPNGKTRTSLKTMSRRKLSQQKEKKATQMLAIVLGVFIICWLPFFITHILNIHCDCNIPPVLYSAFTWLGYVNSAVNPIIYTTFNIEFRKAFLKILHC

Cc1cccn2cc(-c3ccc(OCCCCN4CCN(c5cccc(Cl)c5Cl)CC4)cc3)nc12
Ki [1]: 560 nM | Ki [2]: 54.4 nM

COc1ccccc1N1CCN(CCCOc2ccc(-c3cn4cc(C)ccc4n3)cc2)CC1
Ki [1]: 78 nM | Ki [2]: 176 nM

COc1ccccc1N1CCN(CCCCOc2ccc(-c3cn4ccc(C)cc4n3)cc2)CC1
Ki [1]: 52 nM | Ki [2]: 40 nM

COc1ccccc1N1CCN(CCCCOc2ccc(-c3cn4cccc(C)c4n3)cc2)CC1
Ki [1]: 159 nM | Ki [2]: 385 nM

Cc1ccc2nc(-c3ccc(OCCCN4CCN(c5cccc(Cl)c5Cl)CC4)cc3)cn2c1
Ki [2]: 28.9 nM | inhibition [3]: 31%

COc1ccccc1N1CCN(CCCOc2ccc(-c3cn4ccccc4n3)cc2)CC1
Ki [1]: 49 nM | Ki [2]: 1.6 nM

Cc1ccn2cc(-c3ccc(OCCCN4CCN(c5cccc(Cl)c5Cl)CC4)cc3)nc2c1
Ki [1]: 83 nM | Ki [2]: 8 nM

Clc1cccc(N2CCN(CCCCOc3ccc(-c4cn5ccccc5n4)cc3)CC2)c1Cl
Ki [1]: 68 nM | Ki [2]: 38 nM

Cc1ccc2nc(-c3ccc(OCCCCN4CCN(c5cccc(Cl)c5Cl)CC4)cc3)cn2c1
Ki [1]: 149 nM | Ki [2]: 8 nM

Clc1cccc(N2CCN(CCCOc3ccc(-c4cn5ccccc5n4)cc3)CC2)c1Cl
Ki [1]: 44 nM | Ki [2]: 156 nM

Cc1cccn2cc(-c3ccc(OCCCN4CCN(c5cccc(Cl)c5Cl)CC4)cc3)nc12
Ki [1]: 125 nM | Ki [2]: 225 nM

COc1ccccc1N1CCN(CCCCOc2ccc(-c3cn4cc(C)ccc4n3)cc2)CC1
Ki [1]: 47 nM | Ki [2]: 146 nM

Cc1ccn2cc(-c3ccc(OCCCCN4CCN(c5cccc(Cl)c5Cl)CC4)cc3)nc2c1
Ki [1]: 111 nM | Ki [2]: 60 nM

COc1ccccc1N1CCN(CCCOc2ccc(-c3cn4cccc(C)c4n3)cc2)CC1
Ki [1]: 49 nM | Ki [2]: 50 nM

COc1ccccc1N1CCN(CCCCOc2ccc(-c3cn4ccccc4n3)cc2)CC1
Ki [1]: 179 nM | Ki [2]: 0.72 nM

COc1ccccc1N1CCN(CCCOc2ccc(-c3cn4ccc(C)cc4n3)cc2)CC1
Ki [1]: 78 nM | Ki [2]: 71 nM

Source: ChEMBL document CHEMBL1148812, “4-[omega-[4-arylpiperazin-1-yl]alkoxy]phenyl)imidazo[1,2-a]pyridine derivatives: fluorescent high-affinity dopamine D3 receptor ligands as potential probes for receptor visualization” (J Med Chem, 2007)
